Source: US9174980B2, “Heterocyclic compounds as inhibitors of leukotriene production” (Boehringer Ingelheim International GmbH, priority 2012, dated 2015)

Experiments:
[1] = system: biomarkers for myocardial infarction risk; conditions: clinical trial; cited from earlier work
[2] = molecular target: T1, recombinant human FLAP protein (Homo sapiens, UniProt P20292); assay: FLAP binding assay (Scintillation Proximity Assay, displacement of [125I]L-691,831); conditions: read-out: Human FLAP SPA Binding (IC50 nM)
T1 construct: made in house; host or cells: Sf9 insect cells (membrane fraction, 100,000 x g pellet)
T1 sequence (P20292 1-161): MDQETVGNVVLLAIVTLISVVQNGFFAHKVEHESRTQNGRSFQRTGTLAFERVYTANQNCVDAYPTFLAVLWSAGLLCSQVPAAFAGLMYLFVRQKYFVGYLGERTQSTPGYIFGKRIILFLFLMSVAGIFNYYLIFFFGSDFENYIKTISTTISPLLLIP
Procedure, shortened: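 Membranes from sf9 cells expressing recombinant human FLAP (5 μg/well) on WGA SPA beads were incubated with compound and 0.08 nM [125I]L-691,831 in Tris pH 7.5 binding buffer, shaken 2 h. Displacement read by scintillation proximity; non-specific binding set with 10 μM unlabelled L-691,831.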

[3] = system: synthesis of LTB4 in human whole blood; assay: Human whole blood assay (calcimycin-stimulated LTB4 synthesis); type: cell-based; conditions: Homo sapiens; read-out: Human Whole Blood LTB4 Assay for FLAP (IC50 nM)
Procedure, shortened: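 Steps: compound plus heparinized human whole blood, 15 min at 37° C; add calcimycin to 20 μM final; incubate another 30 min at 37° C; centrifuge at low speed and collect plasma; measure LTB4 with a homogeneous time-resolved fluorescence immunoassay.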

human glomerulonephritis = conditions: clinical trial; cited from earlier work
[4] = system: apoE/LDL-R double knockout mice; conditions: oral dosing, high-fat diet from 2 months of age to 6 months; cited from earlier work
ApoE−/−xCD4dnTβRII mice = conditions: infusion, treated for four weeks; cited from earlier work

In the case of O=C(O)[C@@H](c1ccc(OCc2ccc3ccccc3n2)cc1)C1CCCC1 [DG-031], the “effect on biomarkers for myocardial infarction risk” value [1] is given as “dose-dependent suppression of several biomarkers”.

With CC(C)(O)Cn1cc(-c2coc([C@](C)(c3ccc(-c4cnc(N)nc4)nc3)C3CC3)n2)cn1 [Example 211, 1-[4-(2-{(S)-1-[6-(2-Amino-pyrimidin-5-yl)-pyridin-3-yl]-1-cyclopropyl-ethyl}-oxazol-4-yl)-pyrazol-1-yl]-2-methyl-propan-2-ol] the IC50 [2] was > 2000 nM and the IC50 [3] was > 5000 nM.

For CC(C)(O)Cn1cc(-c2cnc(C(C)(c3ccc(-c4cnc(N)nc4)nc3)C3CC3)s2)cn1 (stereo not drawn) [Example 212, 1-[4-(2-{1-[6-(2-Amino-pyrimidin-5-yl)-pyridin-3-yl]-1-cyclopropyl-ethyl}-thiazol-5-yl)-pyrazol-1-yl]-2-methyl-propan-2-ol], the IC50 [2] was 130 nM and the IC50 [3] was 410 nM.

In the case of CC(C)(C)Sc1c(CC(C)(C)C(=O)O)n(Cc2ccc(Cl)cc2)c2ccc(OCc3ccc4ccccc4n3)cc12 [MK-591], the effect on proteinuria (human glomerulonephritis) is given as “reduce proteinuria”.

In the case of CC(C)c1ccc2c(c1)c(SC(C)(C)C)c(CC(C)(C)C(=O)O)n2Cc1ccc(Cl)cc1 [MK-886], the “decrease in plaque coverage in the aorta” value [4] is listed as 56%, the “decrease in plaque coverage in the aortic root” value [4] is listed as 43% and the “decrease in plaque area in the aortic root” value (ApoE−/−xCD4dnTβRII mice) is listed as ~40%.
